PubChem BioAssay AID328 (DTP/NCI, 2004)
“And” between values parts separate entries of the source, which are not always exact repeats. Identical values can stand only once. Inconclusive results and toxic doses are left out.

Tested on: BDF1 mice, P388 leukemia ip, median survival T/C
Assay: NCI In Vivo Anticancer Drug Screen. Data for tumor model P388 Leukemia (intraperitoneal) in B6D2F1 (BDF1) mice
Conditions: endpoint: median survival time, higher = longer survival
Method in brief: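 Survival ratio, drug arm over vehicle arm, in mice with a transplanted tumour.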

[1] = dose: 100.0 mg/kg/injection, schedule: Q01DX009 (ip), vehicle: saline with Tween-80
[2] = dose: 100.0 mg/kg/injection, schedule: Q04DX003 (ip), vehicle: saline
[3] = dose: 200.0 mg/kg/injection, schedule: Q01DX009 (ip), vehicle: saline with Tween-80
[4] = dose: 200.0 mg/kg/injection, schedule: Q04DX003 (ip), vehicle: saline
[5] = dose: 400.0 mg/kg/injection, schedule: Q01DX009 (ip), vehicle: saline with Tween-80
[6] = dose: 6.25 mg/kg/injection, schedule: Q01DX009 (ip), vehicle: saline with Tween-80
[7] = dose: 100.0 mg/kg/injection, schedule: Q04DX003 (ip), vehicle: saline with Tween-80
[8] = dose: 200.0 mg/kg/injection, schedule: Q04DX003 (ip), vehicle: saline with Tween-80
[9] = dose: 400.0 mg/kg/injection, schedule: Q04DX003 (ip), vehicle: saline with Tween-80

SMILES: O/N=c1/cc(-c2cccs2)ss1
- T/C (dose: 50.0 mg/kg/injection, schedule: Q01DX009 (ip), vehicle: saline with Tween-80): 109 % of control
- T/C [1]: 104 % of control
- T/C [2]: 117 % of control
- T/C [3]: 87 % of control
- T/C [4]: 118 % of control
- T/C [5]: 97 % of control
- T/C (dose: 400.0 mg/kg/injection, schedule: Q04DX003 (ip), vehicle: saline): 124 % of control

SMILES: FC(F)(F)c1cccc(C=Nc2ccc(Oc3ccccc3)cc2)c1
- T/C (dose: 50.0 mg/kg/injection, schedule: Q01DX009 (ip), vehicle: saline + alcohol): 97 % of control
- T/C (dose: 100.0 mg/kg/injection, schedule: Q01DX009 (ip), vehicle: saline + alcohol): 91 % of control
- T/C (dose: 200.0 mg/kg/injection, schedule: Q01DX009 (ip), vehicle: saline + alcohol): 100 % of control

SMILES: O=[As]O
- T/C (dose: 2.0 mg/kg/injection, schedule: Q01DX009 (ip), vehicle: saline): 115 % of control
- T/C (dose: 4.0 mg/kg/injection, schedule: Q01DX009 (ip), vehicle: saline): 123 % of control
- T/C (dose: 8.0 mg/kg/injection, schedule: Q01DX009 (ip), vehicle: saline): 150 % of control

SMILES: O=C1c2ccccc2C(=O)C(Cl)C1Cl (configuration not stated)
- T/C (dose: 1.56 mg/kg/injection, schedule: Q01DX009 (ip), vehicle: saline with Tween-80): 117 % of control
- T/C (dose: 3.13 mg/kg/injection, schedule: Q01DX009 (ip), vehicle: saline with Tween-80): 103 % of control
- T/C [6]: 101 % of control

SMILES: CCN(O)C(N)=O
- T/C [1]: 108 % of control
- T/C [7]: 96 % of control and 104 % of control
- T/C [3]: 100 % of control
- T/C [8]: 88 % of control and 91 % of control
- T/C [5]: 100 % of control
- T/C [9]: 96 % of control and 100 % of control

SMILES: CCCCNC(=O)Nc1ccccc1Cl
- T/C [7]: 100 % of control
- T/C [8]: 100 % of control
- T/C [9]: 95 % of control

SMILES: CS(=O)(=O)N(CC(=O)O)Cc1ccccc1
- T/C (dose: 50.0 mg/kg/injection, schedule: Q04DX003 (ip), vehicle: sodium bicarbonate): 107 % of control
- T/C (dose: 100.0 mg/kg/injection, schedule: Q04DX003 (ip), vehicle: sodium bicarbonate): 119 % of control
- T/C (dose: 200.0 mg/kg/injection, schedule: Q04DX003 (ip), vehicle: sodium bicarbonate): 103 % of control
- T/C (dose: 400.0 mg/kg/injection, schedule: Q04DX003 (ip), vehicle: sodium bicarbonate): 110 % of control

SMILES: CC(=O)CC(OC(=O)c1cc([N+](=O)[O-])cc([N+](=O)[O-])c1)(C(F)(F)F)C(F)(F)F
- T/C [6]: 100 % of control
- T/C (dose: 12.5 mg/kg/injection, schedule: Q01DX009 (ip), vehicle: saline with Tween-80): 118 % of control
- T/C (dose: 25.0 mg/kg/injection, schedule: Q01DX009 (ip), vehicle: saline with Tween-80): 118 % of control

SMILES: CCCCOc1ccc(C(=O)N/N=C(\C)[C@]2(O)Cc3c(O)c4c(c(O)c3[C@@H](OC3CC(N)C(O)C(C)O3)C2)C(=O)c2c(OC)cccc2C4=O)cc1 (some centres not stated)
- T/C (dose: 1.0 mg/kg/injection, schedule: Q01DX009 (ip), vehicle: water): 173 % of control
- T/C (dose: 2.0 mg/kg/injection, schedule: Q01DX009 (ip), vehicle: water): 157 % of control and 173 % of control
- T/C (dose: 4.0 mg/kg/injection, schedule: Q01DX009 (ip), vehicle: water): 169 % of control

SMILES: C[N+](C)(C)CCCC[N+](C)(C)C
- T/C (dose: 25.0 mg/kg/injection, schedule: Q01DX009 (ip), vehicle: saline): 93 % of control
- T/C (dose: 50.0 mg/kg/injection, schedule: Q01DX009 (ip), vehicle: saline): 91 % of control
- T/C (dose: 50.0 mg/kg/injection, schedule: Q04DX003 (ip), vehicle: saline): 103 % of control
- T/C (dose: 100.0 mg/kg/injection, schedule: Q01DX009 (ip), vehicle: saline): 87 % of control
- T/C [2]: 103 % of control
- T/C (dose: 200.0 mg/kg/injection, schedule: Q01DX009 (ip), vehicle: saline): 89 % of control and 93 % of control
- T/C [4]: 100 % of control
- T/C (dose: 300.0 mg/kg/injection, schedule: Q01DX009 (ip), vehicle: saline): 93 % of control and 96 % of control

SMILES: ON=C(CSCc1ccccc1)CSCc1ccccc1
- T/C (dose: 50.0 mg/kg/injection, schedule: Q04DX003 (ip), vehicle: saline with Tween-80): 99 % of control
- T/C [7]: 103 % of control
- T/C [8]: 88 % of control
- T/C [9]: 95 % of control
